Test results taken from patent publication US20220117958A1, “COMPOSITIONS AND METHODS FOR INHIBITING ACSS2” (THE TRUSTEES OF THE UNIVERSITY OF PENNSYLVANIA, priority 2018, published 2022).
Entries after “also recorded” stand apart in the source; their conditions may differ.

What was measured:
[1] = system: Male Sprague-Dawley rat; assay: Fear conditioning in rats (cued memory test); type: in vivo; conditions: IP, dosed 5 min before and 30 min after acquisition, versus vehicle
Method: A. Fear Conditioning in Rats
Species: Rat; Strain: Male Sprague-Dawley (CD-SD strain 001; Charles River Labs); Age or weight: 7 to 9 weeks, approximately 250 grams
Formulation(s): 5% DMSO in 0.5% methylcellulose
Dose Levels: 4 mg/kg total; distributed into 2 injections of 2 mg/kg
Dose Frequency: Twice; once prior to shock cycle and once right after last shock • 1st Injection—5 minutes before being placed into fear conditioning chamber • 2nd Injection—30 minutes after coming out of fear conditioning chamber (alternatively 30 min after last shock) • Study duration: 3 days
Rats are handled for 3 consecutive days for ˜2 minutes each day prior to the experiment. […]
Day 1—Conditioning (Acquisition)—animals are placed in the chambers and presented a training session (Context A). […] Freezing behavior (immobility) is recorded in 10-second intervals during the session. Percent baseline freezing behavior is determined in the 3-minute habituation period. […]
The rats were provided 3 minutes habituation. […] Data is recorded in 10 see epochs. […]
Animals are placed in the chambers with a different (lemon) scent and black Plexiglas floor over the grid floor (Context B). Freezing behavior in response to an altered context is recorded for 2 minutes in 10-second intervals. Then the 80 dB tone is presented for 8 minutes and immobility is recorded in 10-second intervals to measure freezing response to the tone cue.

[2] = system: mice; assay: Object-location memory paradigm; type: in vivo; conditions: recall phase, versus DMSO injected
Method: FIG. 29 depicts a graph showing the time spent interacting with an individual object relative to the total time spent interacting with all objects.
To assess hippocampus-dependent spatial memory, an object-location memory paradigm is used. Animals explore three different objects during training, and long-term memory is tested by re-exposure 24 hours later with one object moved to a different location. In training, control and inhibitor treated mice show no difference in exploration. During memory retrieval, control mice show increased exploration of the object that had been moved. By contrast, mice treated with an ACSS2 inhibitor are impaired in spatial object memory and display a lower discrimination index.
The conditions were blind as it relates to the injection (DMSO versus ADG-205c) and the locations of objects (those in the same location versus novel location). An online stopwatch interface was used that allowed use 3 simultaneous timer, one for each object. Each timer was stopped individually as the mouse interacted with a given object. […] Some mice remained stationary for substantial amounts of time relative to the others—some appearing apprehensive huddled in a corner, some spending time grooming.

[3] = system: primary hippocampal neurons; assay: RNA-seq, acetate-induced transcription in primary hippocampal neurons; type: cell-based, mouse
Method: Alcohol and acetate have pleiotropic effects on brain circuitry and metabolism. Utilizing isolated mouse primary hippocampal neurons, the transcriptional response to supraphysiological levels of acetate (cells were cultured for one week after isolation and subsequently treated with 5 mM acetate for 24 hours) that mimics exogenous acetate influx during alcohol intake was investigated. Further, to determine the specific role of ACSS2 in transcriptional responses to acetate, a highly specific small molecule inhibitor of ACSS2 (ACSS2i ADG-205: C20H18N4O2S2, FIG. 15A) was employed.

COCCNC(=O)Nc1ccc2nc(-c3cccs3)c(-c3cccs3)nc2c1 [ADG-205c, 1-(2,3-di(thiophen-2-yl)quinoxalin-6-yl)-3-(2-methoxyethyl)urea]
Freezing during cue presentation (cued memory test) ([1]; listed as EPV018): significant reduced freezing
Freezing during cue presentation (cued memory test) ([1]; listed as EPV-018): statistically significant reduction
Preference for object moved to novel location (time interacting with object relative to all objects) [2]: very little preference for one object
Number of the 3613 acetate-induced genes that fail to be upregulated in the presence of inhibitor ([3]; 5 mM acetate, 24 hours, RNA-seq): 2107 genes
Slc17a7 induction upon acetate treatment ([3]; acetate, ACSS2 inhibited): induction was diminished
Acetate induction of ACSS2 target genes with alcohol-induced H3K9ac ([3]; hippocampal neurons ex vivo, acetate): blocks this gene induction
Acetate induction of ACSS2 target genes with alcohol-induced H3K27ac ([3]; hippocampal neurons ex vivo, acetate, listed as ACSS2i): failed to be induced; also recorded: blocks this gene induction
Regulation of acetate-induced genes by inhibitor in the absence of acetate ([3]; no acetate): not regulated
